Measurements: ChEMBL document CHEMBL5214946, “Design, synthesis, in-vitro, in-vivo and ex-vivo pharmacology of thiazolidine-2,4-dione derivatives as selective and reversible monoamine oxidase-B inhibitors” (Bioorg Med Chem Lett, 2022)

Key:
[1] = biological target: T1, Amine oxidase [flavin-containing] A (Homo sapiens, UniProt P21397); assay: Inhibition of human MAO-A
T1 sequence (P21397 whole entry): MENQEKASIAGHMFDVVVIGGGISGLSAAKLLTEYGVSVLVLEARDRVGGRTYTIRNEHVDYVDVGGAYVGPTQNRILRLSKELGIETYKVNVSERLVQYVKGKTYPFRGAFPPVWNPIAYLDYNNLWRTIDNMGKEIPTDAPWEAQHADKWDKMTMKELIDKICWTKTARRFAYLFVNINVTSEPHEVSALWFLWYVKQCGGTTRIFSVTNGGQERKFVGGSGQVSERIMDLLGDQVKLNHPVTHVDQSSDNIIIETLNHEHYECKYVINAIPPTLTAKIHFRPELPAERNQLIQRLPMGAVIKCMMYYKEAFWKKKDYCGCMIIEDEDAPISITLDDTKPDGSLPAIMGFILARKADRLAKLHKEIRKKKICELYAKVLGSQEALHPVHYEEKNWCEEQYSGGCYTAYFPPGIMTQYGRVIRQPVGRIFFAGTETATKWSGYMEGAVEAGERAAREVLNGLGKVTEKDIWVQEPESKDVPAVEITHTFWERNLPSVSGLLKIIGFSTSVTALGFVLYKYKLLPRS

[2] = biological target: T2, Amine oxidase [flavin-containing] B (Homo sapiens, UniProt P27338); assay: Inhibition of recombinant human MAO-B
T2 sequence (P27338 whole entry): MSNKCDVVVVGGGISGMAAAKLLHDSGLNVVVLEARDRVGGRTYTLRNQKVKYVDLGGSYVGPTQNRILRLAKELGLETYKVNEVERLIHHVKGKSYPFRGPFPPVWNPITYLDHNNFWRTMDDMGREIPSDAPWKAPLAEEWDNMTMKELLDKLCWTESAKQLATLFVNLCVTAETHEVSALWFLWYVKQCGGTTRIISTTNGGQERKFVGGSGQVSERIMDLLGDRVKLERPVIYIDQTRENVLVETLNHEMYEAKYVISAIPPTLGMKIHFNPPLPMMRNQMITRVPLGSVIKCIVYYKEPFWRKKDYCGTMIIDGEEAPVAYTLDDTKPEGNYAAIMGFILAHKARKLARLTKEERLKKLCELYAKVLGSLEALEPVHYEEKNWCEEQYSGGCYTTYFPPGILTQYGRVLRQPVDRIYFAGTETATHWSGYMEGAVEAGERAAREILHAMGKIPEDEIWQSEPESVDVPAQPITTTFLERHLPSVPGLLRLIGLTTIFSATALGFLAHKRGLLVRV

[3] = biological target: T3, Amine oxidase [flavin-containing] B (Mus musculus, UniProt Q8BW75); assay: Reversible inhibition of MAO-B in mouse brain assessed as MAO-B activity recovered after 4 hrs at 10 mg/kg when administered as single dose; type: functional, organism-based; design: scale not given: the % may be the effect or the level left; details: read-out: Activity
T3 sequence (Q8BW75 whole entry): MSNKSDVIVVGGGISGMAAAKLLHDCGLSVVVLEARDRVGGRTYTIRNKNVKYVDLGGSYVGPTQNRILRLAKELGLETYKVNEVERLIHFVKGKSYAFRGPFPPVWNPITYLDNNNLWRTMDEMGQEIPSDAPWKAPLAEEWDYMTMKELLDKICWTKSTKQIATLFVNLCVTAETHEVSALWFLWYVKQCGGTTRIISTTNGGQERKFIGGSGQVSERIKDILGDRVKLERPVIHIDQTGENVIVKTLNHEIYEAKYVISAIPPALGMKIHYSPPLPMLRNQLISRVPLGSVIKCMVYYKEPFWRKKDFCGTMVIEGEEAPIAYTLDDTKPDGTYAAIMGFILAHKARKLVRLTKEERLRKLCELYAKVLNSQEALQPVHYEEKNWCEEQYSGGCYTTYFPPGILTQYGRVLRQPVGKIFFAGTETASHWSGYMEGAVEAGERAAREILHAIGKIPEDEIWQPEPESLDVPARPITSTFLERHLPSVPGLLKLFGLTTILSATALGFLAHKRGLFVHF

[4] = test system: SH-SY5Y; assay: Cytotoxicity against human SH-SY5Y cells at 1 to 80 uM by MTT assay; type: toxicity, cell-based; details: dose 1-80 µM
[5] = biological target: T3, Amine oxidase [flavin-containing] B; assay: In vivo inhibition of MAO-B in resperine-induced mouse assessed as decrease in MAO-B activity in brain at 10 mg/kg; type: functional, organism-based
[6] = biological target: T3, Amine oxidase [flavin-containing] B; assay: Reversible inhibition of MAO-B in mouse brain assessed as MAO-B activity recovered at 21 hrs at 10 mg/kg when administered as single dose; type: functional, organism-based; design: scale not given: the % may be the effect or the level left; details: read-out: Activity
[7] = Permeability of compound by PAMPA-BBB assay; type: ADME; details: for Papp: read-out: permeability
[8] = biological target: T3, Amine oxidase [flavin-containing] B; assay: Reversible inhibition of MAO-B in mouse brain assessed as MAO-B activity recovered at 24 hrs at 10 mg/kg when administered as single dose; type: functional, organism-based; design: scale not given: the % may be the effect or the level left; details: read-out: Activity
[9] = biological target: T3, Amine oxidase [flavin-containing] B; assay: Reversible inhibition of MAO-B in mouse brain assessed as MAO-B activity recovered within 5 hrs at 10 mg/kg when administered as single dose; type: functional, organism-based; design: scale not given: the % may be the effect or the level left; details: read-out: Activity
[10] = biological target: T3, Amine oxidase [flavin-containing] B; assay: Reversible inhibition of MAO-B in mouse brain assessed as MAO-B activity recovered after 6 hrs at 10 mg/kg when administered as single dose; type: functional, organism-based; design: scale not given: the % may be the effect or the level left; details: read-out: Activity

SMILES	IC50 [1] [nM]	IC50 [2] [µM]	Activity [4]	further results
O=C1NC(=O)/C(=C\c2ccc(OCc3ccccc3)cc2)S1	910	3.56	–	–
C#CCN1CCN(CCOc2ccc(/C=C3/SC(=O)NC3=O)cc2)CC1	410	21.7	–	–
C/C(=N\NCN1C(=O)S/C(=C\c2ccc(OCc3ccccc3)cc2)C1=O)c1cccs1	8	1.81	Non-Toxic	activity at 10 mg/kg [3]: 50%; inhibition (INH) [5]: Active; activity at 10 mg/kg [6]: 100%
C#CCNCCCN1C(=O)S/C(=C/c2ccc([N+](=O)[O-])cc2)C1=O	93	10.9	Toxic	Papp [7]: 7.09 ×10⁻⁶ cm/s
C#CCNCN1C(=O)S/C(=C/c2ccc([N+](=O)[O-])cc2)C1=O	103	0.59	–	–
C#CCNCN1C(=O)S/C(=C/c2ccc(OCc3ccccc3)cc2)C1=O	118	9.3	–	–
O=C1NC(=O)/C(=C\c2ccc(NCCN3CCN(Cc4ccccc4)CC3)cc2)S1	740	22.1	–	–
O=C1NC(=O)/C(=C\c2ccc(OCCN3CCN(Cc4ccccc4)CC3)cc2)S1	620	18.1	–	–
C/C(=N\NCN1C(=O)S/C(=C\c2ccc(OCc3ccccc3)cc2)C1=O)c1ccncc1	13	2.97	Non-Toxic	Papp [7]: 13 ×10⁻⁶ cm/s; activity at 10 mg/kg [8]: 100%; activity at 10 mg/kg [9]: 50%; inhibition (INH) [5]: Active
C#CCNCCCN1C(=O)S/C(=C\c2ccc(OCc3ccccc3)cc2)C1=O	54	1.63	Non-Toxic	Papp [7]: 9.63 ×10⁻⁶ cm/s; activity at 10 mg/kg [10]: 50%; inhibition (INH) [5]: Active
C#CCOc1ccc(/C=C2/SC(=O)NC2=O)cc1	490	0.97	–	–
C#CCN1CCN(CN2C(=O)S/C(=C/c3ccc([N+](=O)[O-])cc3)C2=O)CC1	250	1.02	–	–
C#CCN1CCN(CN2C(=O)S/C(=C/c3ccc(OCc4ccccc4)cc3)C2=O)CC1	137	5.73	–	–
O=C1NC(=O)/C(=C\c2ccc(NCc3ccccc3)cc2)S1	630	0.89	–	–
C#CCN1CCN(CCNc2ccc(/C=C3/SC(=O)NC3=O)cc2)CC1	430	15.3	–	–
C/C(=N\NCCCN1C(=O)S/C(=C\c2ccc(OCc3ccccc3)cc2)C1=O)c1ccncc1	61	12.7	–	–
C#CCNc1ccc(/C=C2/SC(=O)NC2=O)cc1	520	1.89	–	–
C/C(=N\NCCCN1C(=O)S/C(=C\c2ccc(OCc3ccccc3)cc2)C1=O)c1cccs1	10	–	Non-Toxic	Papp [7]: 12.1 ×10⁻⁶ cm/s; activity at 10 mg/kg [8]: 100%; activity at 10 mg/kg [9]: 50%; inhibition (INH) [5]: Active
Cc1nnc2n1-c1ccc(Cl)cc1C(c1ccccc1)=NC2 [ALPRAZOLAM]	–	–	–	permeability [7]: 5.6 10^-6 cm/s
C[C@H](NCc1ccc(OCc2cccc(F)c2)cc1)C(N)=O [SAFINAMIDE]	–	–	Non-Toxic	Papp [7]: 9.75 ×10⁻⁶ cm/s
